{"source": "patent US20080058274A1", "about": "“Combination Therapy” (priority 2004, published 2008)", "key": {"[1]": {"system": "C-26 colon carcinomas", "assay": "In vivo antitumor efficacy, mice inoculated i.p. with C-26 colon carcinoma", "design": "species or system BALB/c mice", "conditions": "i.v. treatment, DXN 8 mg/kg", "experimental": "In vivo evaluation of antitumor efficacy of Liposomal DXN: All the experimental procedures which make use of animals (mice) were done in accordance with the standards required by the Institutional Animal Care and Use Committee of the Hebrew University and Hadassah Medical Organization and approved by the Committee.\nTo test therapeutic efficacy, female BALB/c mice (in the weight range of 16-20 g) were injected i.p. with 1*10^6 C-26 colon carcinomas. The viability of these cells was >90% by trypan blue exclusion. Therapeutic efficacy of i.v. injected SSL (DXN-C6Cer-SSL) containing both DXN in intraliposome aqueous phase (DXN/PL ratio of 0.2) and 11.5 mole % of C6Cer in comparison to Doxil (alone) and free DXN was studied. In all 3 treatments DXN dose was 0.16 mg/mouse (8 mg/kg) and dose of C6Cer injected into mice treated with DXN-C6Cer-SSL was 0.25 mg.mouse (12.5 mg/kg). Intravenous treatment began at day 4 after tumor cell inoculation and was repeated three times at 5-days intervals. The median survival and percentage increase in life span of treated (T) over control (C) animals (Tx100/C)-100 were calculated.\nStatistical analysis: Median survival times and the statistical significance of differences in survival curves were calculated by means of the log-rank test using Prism Software (GraphPad, San Diego, Calif.). Differences were considered significant at P<0.05."}, "[2]": {"assay": "Doxorubicin pharmacokinetics and biodistribution in tumor-bearing mice", "format": "in vivo, BALB/c mice", "protocol": "Pharmacokinetics and biodistribution studies in tumor-bearing mice: Eight to 10-week-old BALB/c female mice, obtained through the Animal Breeding House of the Hebrew University (Jerusalem, Israel), were housed at Hadassah Medical Center at a specific pathogen free (SPF) facility with food and water ad libitum. Each mouse was injected with one inoculum of tumor cells (1×10^6 murine C-26 cells) subcutaneously into the left flank. 7 days later SSL formulations containing both DXN (0.16 mg/mouse) and C6Cer, (0.25 mg/mouse), Doxil (0.16 mg/mouse) and free DXN (0.16 mg/mouse) were injected i.v. At 1, 4, 24 and 48 hr after injection, the animals were anesthetized with 4% chloral hydrate (Fluka, USA), bled by eye inoculation, and plasma was separated from blood cells by 5 min centrifugation at 5,000 rpm. Various organs (liver, heart, lungs, kidneys) and tumor were removed. Each time period in each treated group consisted of 3 mice. Samples were frozen at −80° C. until assayed. Thereafter, plasma samples were diluted in 90% isopropanol containing 10% 0.75N HCl in order to dissolve all liposome's lipids and release the DXN to the solution, and concentration of DXN was determined according to a standard calibration curve of DXN (excitation at 485±10 mu and emission at 590±10 nm) from fluorescence intensity using Synergy HT plate reader in its fluorescence mode (Bio-Tek, Vermont, USA).\nDoxorubicin pharmacokinetics and biodistribution studies in tumor-bearing mice: BALB/c female mice were injected with one inoculum of tumor cells (1×10^6 C-26 cells) subcutaneously into the left flank. Seven days later, liposomal formulations containing both DXN and C6Cer [HSPC:^2kPEG-DSPE:Chol:C6Cer (76:7.5:5:11.5)-DXN]; Doxil or Free DXN were injected i.v., and bled by eye inoculation, plasma was isolated and 50 μl was taken from plasma for further analysis. DXN levels were determined after “extraction” of plasma with acidic isopropanol as described in Methods."}, "[3]": {"system": "doxorubicin-resistant human breast carcinoma M-109 cell line", "assay": "Cytotoxicity, methylene blue (MB) staining assay", "format": "cell-based", "conditions": "M-109 doxorubicin-resistant cells", "protocol": "Cytotoxicity studies: The cytotoxicity of C6Cer-DXN-SSL against doxorubicin-resistant human breast carcinoma M-109 cell line was tested by the methylene blue (MB) staining assay [Gorodetsky, R. et al. Int. J. Cancer. 75:635-642 (1998)]. A known number of exponentially growing cells in 200 μL of medium were plated in 96-microwell, flat-bottomed plates. For each of the variants tested, 4 wells were used. Following 24 hr of incubation in culture, different concentrations of drugs or formulations were added to each well containing untreated cells.\nCells were exposed to drugs for 96 hr. […] The MB bound to the fixed cells was extracted by incubation at 37° C. with 200 μL of 0.1 N HCl for 1 h, and the net optical density of the dye in each well was determined by a plate spectrophotometer (Labsystems Multyskan Bichromatic, Finland) at 620 nm.\nStatistical analysis: Median survival times and the statistical significance of differences in survival curves were calculated by means of the log-rank test using Prism Software (GraphPad, San Diego, Calif.). […] For assessment of synergy, the combination index (CI) was determined by median effect analysis [Chow T C, Talalay P. Quantitative analysis of dose-effect relationships: the combined effects of multiple drugs or enzyme inhibitors. […]"}}, "note": "Counter-ions that a name gives are not always drawn. Like-named read-outs stand apart in the source and are kept apart here.", "data": [{"smiles": "COc1cccc2c1C(=O)c1c(O)c3c(c(O)c1C2=O)C[C@@](O)(C(=O)CO)C[C@@H]3O[C@H]1C[C@H](N)[C@H](O)[C@H](C)O1", "note": "[free DXN, 8S,10S)-10-[(3-amino-2,3,6-trideoxy-a-L-lyxo-hexopyranosyl)oxy]-8-glycolyl-7,8,9,10-tetrahydro-6,8,11-trihydroxy-1-methoxy-5,12-naphthacenedione hydrochloride]", "values": [{"measurement": "survival 80 days after treatment initialization", "setting": "[1]; FIG. 3", "result": 0, "unit": "%"}, {"measurement": "median survival", "setting": "[1]; untreated 16 day", "result": 35, "unit": "days"}, {"measurement": "DXN remaining in plasma", "setting": "[2]; 1 hr post-injection, i.v. 0.16 mg DXN/mouse, FIG. 4A", "result": 3, "unit": "%"}, {"measurement": "DXN level in heart tissue", "setting": "[2]; 4 hr post-treatment, i.v., FIG. 4B", "result": 5.7, "unit": "%"}, {"measurement": "DXN level in tumor tissue", "setting": "[2]; 24 hr post-injection (maximum), i.v., s.c. C-26 tumor, FIG. 4B", "result": 1, "unit": "%"}, {"measurement": "DXN remaining in circulation", "setting": "[2]; plasma, 48 hr post-injection, i.v. 0.16 mg DXN/mouse, FIG. 4A", "result": "below detection"}, {"measurement": "IC50", "setting": "[3]; M109, agent given alone, 96 hr exposure, read-out: IC50", "result": 2200, "unit": "nM"}, {"measurement": "IC50", "setting": "[3]; M109, combined with liposomal C6Cer at its IC10, 96 hr, read-out: IC50 of DXN in the presence of IC10 concentration of liposomal C6Cer", "result": 900, "unit": "nM"}]}]}
